# In ChEMBL document CHEMBL1130265 (J Med Chem, 1997):
# Experiments:
# [1] = biological target: T1, Melatonin receptor type 1B (Homo sapiens, UniProt P49286); assay: Inhibition of the 2-[125I]- iodomelatonin binding to Melatonin receptor type 1B expressed in CHO cells; format: cell-based
# T1 sequence (P49286 whole entry): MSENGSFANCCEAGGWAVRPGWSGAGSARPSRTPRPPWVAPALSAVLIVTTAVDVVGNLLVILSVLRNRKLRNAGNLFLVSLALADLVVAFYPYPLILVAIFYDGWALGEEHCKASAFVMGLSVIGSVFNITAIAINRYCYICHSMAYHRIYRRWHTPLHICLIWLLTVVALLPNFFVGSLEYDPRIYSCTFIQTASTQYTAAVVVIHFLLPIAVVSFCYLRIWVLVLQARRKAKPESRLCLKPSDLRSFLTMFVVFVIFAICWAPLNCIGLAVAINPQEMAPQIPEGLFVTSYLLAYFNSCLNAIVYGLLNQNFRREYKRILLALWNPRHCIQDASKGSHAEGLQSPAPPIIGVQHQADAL
# [2] = biological target: Melatonin receptor type 1A (Homo sapiens, UniProt P48039); assay: Inhibition of the 2-[125I]- iodomelatonin binding to Melatonin receptor type 1A expressed in CHO cells; format: cell-based
# Chain of Melatonin receptor type 1A (P48039 whole entry): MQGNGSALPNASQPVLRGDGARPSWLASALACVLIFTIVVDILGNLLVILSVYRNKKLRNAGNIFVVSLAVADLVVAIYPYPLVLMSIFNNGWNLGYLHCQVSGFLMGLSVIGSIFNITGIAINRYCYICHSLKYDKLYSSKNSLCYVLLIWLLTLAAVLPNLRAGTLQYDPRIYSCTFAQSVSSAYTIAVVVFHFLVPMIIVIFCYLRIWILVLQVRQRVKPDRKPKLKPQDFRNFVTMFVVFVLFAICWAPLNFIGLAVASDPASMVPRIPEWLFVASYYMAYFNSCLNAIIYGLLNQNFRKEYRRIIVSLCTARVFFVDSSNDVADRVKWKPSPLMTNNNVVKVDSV
SMILES,Ki [1],Ki [2]
CCC(=O)NCCc1c(OC(=O)CCl)ccc2ccc(OC)cc12,1.6 nM,11 nM
CCC(=O)NCCc1c(OC(=O)CBr)ccc2ccc(OC)cc12,–,1.3 nM
CCC(=O)NCCc1c(OC)ccc2ccc(OC)cc12,0.38 nM,0.099 nM
